Consider 33 compounds from the supplement of paper PMC5412046.

Structures can show the parent of a compound that is named as a salt.

The test system of assay [1] is SB.mhdgc-1. Nature of the assay: area under the dose-response curve of % viability (trapezoidal, 11 doses) (% viability x log10 concentration); higher = less cytotoxic. The following applies: SB.mhdgc-1 (hereditary c.1380delA CDH1 gastric cancer). An outline of the steps:
(§1)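 The measure is viability normalised to DMSO, given as trapezoidal area under the curve or at the highest concentration. Patient-derived gastric cancer cells, hereditary or sporadic, were exposed for 48 h to compound at 11 threefold-diluted concentrations, each compound's top concentration being recorded. Luminescence was read on a ViewLux after 30 min with CellTiter-Glo at room temperature.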

Assay [2] concerns SB.msgc-1. The assay is described as above. The note with it: SB.msgc-1 (sporadic gastric cancer). An outline of the steps:
as §1

The subject of assay [3] is SB.mhdgc-1. The experiment in a line: viability at highest tested concentration (MAXR) relative to DMSO; higher = less cytotoxic. The following applies: SB.mhdgc-1 (hereditary c.1380delA CDH1 gastric cancer). An outline of the steps:
as §1

Assay [4] deals with SB.msgc-1. The description is as above. The note with it: SB.msgc-1 (sporadic gastric cancer). An outline of the steps: as §1

The term viability denotes a read-out of living cells in per cent, often relative to untreated cells. As to `CCN1CCN(CC1)CC(=O)NC2=CC=C(C3=C2C4=C(S3)C=CC=C4)C5=C6O\C(=C/C(=O)C6=CC=C5)N7CCOCC7` (top concentration 46.0829 µM), the entries for the “area under the dose-response curve” value with SB.mhdgc-1 [1] and in the assay on SB.msgc-1 [2] were 336 and 352, respectively. Moreover, the values for the viability in the assay on SB.mhdgc-1 [3] and with SB.msgc-1 [4] were 0.471% and 4.65%, respectively.
For the compound `C=C(C)[C@H]1Cc2c(ccc3c2O[C@@H]2COc4cc(OC)c(OC)cc4[C@@H]2C3=O)O1` [Rotenone] (top concentration 46.0829 µM), the “area under the dose-response curve” value is 441 with SB.mhdgc-1 [1] and 417 in the assay with SB.msgc-1 [2]. Further, the viability in the assay on SB.mhdgc-1 [3] was 35.7%; with SB.msgc-1 [4] it was 38.9%.
`O=C(CCCCCCC(=O)Nc1cccnc1)NO` [Pyroxamide] (top concentration 46.0829 µM): the “area under the dose-response curve” value in the assay on SB.mhdgc-1 [1] is 466; in the assay on SB.msgc-1 [2], 385. The values for the viability with SB.mhdgc-1 [3] and with SB.msgc-1 [4] were 55.4% and 6.06%, respectively.
As to `NC(CSC(c1ccccc1)(c1ccccc1)c1ccccc1)C(=O)O` (stereo in doubt) [S-Trityl-L-cysteine] (top concentration 46.0829 µM), the “area under the dose-response curve” value in the assay on SB.mhdgc-1 [1] turned out to be 491; with SB.msgc-1 [2], 458. Further, the viability with SB.mhdgc-1 [3] is 80.3%; in the assay with SB.msgc-1 [4], 45.1%.
In the case of `CC(C)C[C@H](NC(=O)[C@@H](NC(=O)c1cccc(-c2ccccc2)n1)[C@@H](C)O)B(O)O` [Delanzomib] (top concentration 46.0829 µM), the “area under the dose-response curve” value was 198 with SB.mhdgc-1 [1] and 184 in the assay with SB.msgc-1 [2]. Besides, the viability in the assay on SB.mhdgc-1 [3] worked out at 1.09%; with SB.msgc-1 [4], 1.1%.
For the compound `CC[C@@H]1C(=O)N(C)c2cnc(Nc3ccc(C(=O)NC4CCN(C)CC4)cc3OC)nc2N1C1CCCC1` [BI-2536] (top concentration 46.0829 µM), the entries for the “area under the dose-response curve” value in the assay on SB.mhdgc-1 [1] and in the assay on SB.msgc-1 [2] were 387 and 318, respectively. In addition, the viability in the assay with SB.mhdgc-1 [3] came to 4.16%; in the assay on SB.msgc-1 [4], 14%.
As to `NC(=O)Nc1cc(-c2ccc(CN3CCOCC3)cc2)sc1C(N)=O` [AZ-TAK1 Inhibitor] (top concentration 46.0829 µM), the results for the “area under the dose-response curve” value in the assay on SB.mhdgc-1 [1] and in the assay on SB.msgc-1 [2] were 488 and 504, respectively. The viability is 29.1% in the assay on SB.mhdgc-1 [3] and 36.6% with SB.msgc-1 [4].
On to `CO/C1=C/C(C)=C\[C@@H](C)[C@@H](O)[C@@H](C)C/C(C)=C\C=C/[C@H](OC)[C@@H]([C@@H](C)[C@@H](O)[C@H](C)[C@@]2(O)C[C@@H](O)[C@H](C)[C@@H](C(C)C)O2)OC1=O` [Bafilomycin A1] (top concentration 46.0829 µM), for which the “area under the dose-response curve” value is 111 with SB.mhdgc-1 [1] and 84.7 with SB.msgc-1 [2]. The viability with SB.mhdgc-1 [3] was found to be 2.65%; in the assay with SB.msgc-1 [4], 0.826%.
Consider `CNC(=O)c1ccc2cc(C3(O)CCn4cncc43)ccc2c1` (configuration not stated) [Orteronel] (top concentration 46.0829 µM), for which the “area under the dose-response curve” value with SB.mhdgc-1 [1] came to 556; in the assay with SB.msgc-1 [2], 534. The viability is 109% in the assay on SB.mhdgc-1 [3] and 94.9% with SB.msgc-1 [4].
Turning to `OCc1ccccc1O[C@@H]1O[C@H](CO)[C@@H](O)[C@H](O)[C@H]1O` [Salicin] (top concentration 46.0829 µM), the results for the “area under the dose-response curve” value with SB.mhdgc-1 [1] and in the assay with SB.msgc-1 [2] were 509 and 466, respectively. Also, the viability in the assay on SB.mhdgc-1 [3] amounted to 119%; in the assay with SB.msgc-1 [4], 93.9%.
For the compound `CO[C@@H]1[C@@H](OC(N)=O)[C@@H](O)[C@H](OC2=CC=C3\C(=C(NC(=O)C4=CC=C([O-])C(=C4)CC=C(C)C)/C(=O)OC3=C2C)O)OC1(C)C` [Novobiocin sodium] (top concentration 46.0829 µM), the “area under the dose-response curve” value with SB.mhdgc-1 [1] was 540; with SB.msgc-1 [2] it was 507. In addition, the viability worked out at 115% with SB.mhdgc-1 [3] and 99.6% in the assay on SB.msgc-1 [4].
For `CCC[C@@H]1C[C@@H](C(=O)N[C@@H]([C@H]2O[C@H](SC)[C@H](O)[C@@H](O)[C@H]2O)[C@@H](C)O)N(C)C1.Cl` [Lincomycin  hydrochloride] (top concentration 46.0829 µM), the entries for the “area under the dose-response curve” value in the assay on SB.mhdgc-1 [1] and in the assay with SB.msgc-1 [2] were 525 and 548, respectively. In addition, the figures for the viability with SB.mhdgc-1 [3] and with SB.msgc-1 [4] were 85.3% and 94%, respectively.
For `COC1=C2C[C@@H](C)C[C@H](OC)[C@H](O)[C@@H](C)/C=C(\C)[C@H](OC(N)=O)[C@@H](OC)/C=C/C=C(\C)C(=O)NC(=CC1=O)C2=O` [Geldanamycin] (top concentration 46.0829 µM), in that order: 374, 306, 1.89% and 0.593%.
For `O=C(CCCCCCC(=O)Nc1ccc([C@H]2O[C@@H](CSc3nc(-c4ccccc4)c(-c4ccccc4)o3)C[C@@H](c3ccc(CO)cc3)O2)cc1)NO` [Tubacin] (top concentration 46.0829 µM), in that order: 483, 488, 23.2% and 5.55%.
Turning to `Cc1n[nH]c(C)c1Cc1sc2c(c1C(=O)N1C[C@H](O)CO1)c(=O)n(C)c(=O)n2CC(C)C` (top concentration 46.0829 µM), the “area under the dose-response curve” value turned out to be 549 with SB.mhdgc-1 [1] and 620 with SB.msgc-1 [2]. Further, the viability amounted to 92.3% in the assay on SB.mhdgc-1 [3] and 118% in the assay with SB.msgc-1 [4].
For the compound `CCc1nc(N)nc(N)c1-c1ccc(Cl)cc1` [Pyrimethamine] (top concentration 46.0829 µM), the “area under the dose-response curve” value amounted to 455 in the assay on SB.mhdgc-1 [1] and 322 in the assay with SB.msgc-1 [2]. The viability was determined as 58.8% with SB.mhdgc-1 [3] and 27.6% with SB.msgc-1 [4].
On to `Cc1ccc(NC(=O)c2ccc(CN3CCN(C)CC3)cc2)cc1Nc1nc(-c2cccnc2)cs1` [Masitinib] (top concentration 46.0829 µM), for which the “area under the dose-response curve” value came out at 518 with SB.mhdgc-1 [1] and 443 in the assay on SB.msgc-1 [2]. Also, the viability with SB.mhdgc-1 [3] was found to be 23.7%; in the assay on SB.msgc-1 [4] it was 42.1%.
As for `CC/1=C(/N2[C@H](SC1)[C@H](NC(=O)[C@H](N)\C3=C\C\C=C/C3)C2=O)C(O)=O` [Cephradine] (top concentration 46.0829 µM), the “area under the dose-response curve” value in the assay on SB.mhdgc-1 [1] came out at 571; in the assay on SB.msgc-1 [2], 538. The viability worked out at 108% with SB.mhdgc-1 [3] and 121% in the assay with SB.msgc-1 [4].
As to `CCOC(=O)Nc1ccc(NCc2ccc(F)cc2)cc1N` [Retigabine] (top concentration 46.0829 µM), the “area under the dose-response curve” value is 490 in the assay on SB.mhdgc-1 [1] and 524 with SB.msgc-1 [2]. The viability was determined as 82% in the assay with SB.mhdgc-1 [3] and 73.7% in the assay with SB.msgc-1 [4].
For `CC[C@]1(O)C[C@H]2CN(CCC3=C([NH]C4=C3C=CC=C4)[C@@](C2)(C(=O)OC)C5=CC6=C(C=C5OC)N(C=O)[C@H]7[C@](O)([C@H](OC(C)=O)[C@]8(CC)\C=C/C[N@@]9CC[C@]67[C@H]89)C(=O)OC)C1` [Vincristine sulfate] (top concentration 46.0829 µM), in that order: 260, 251, 33.5% and 36.7%.
Take `CC1(C)CNc2cc(NC(=O)c3cccnc3NCc3ccncc3)ccc21` [Motesanib] (top concentration 46.0829 µM): the “area under the dose-response curve” value in the assay with SB.mhdgc-1 [1] was 394; with SB.msgc-1 [2] it was 463. The values for the viability in the assay with SB.mhdgc-1 [3] and in the assay with SB.msgc-1 [4] were 49.8% and 68.8%, respectively.
For `COc1ccc(/C=C\c2cc(OC)c(OC)c(OC)c2)cc1O` [Combretastatin A-4] (top concentration 46.0829 µM), in that order: 273, 462, 34.6% and 49.1%.
Turning to `O=C1\C=C(/OC2=C1C=CC=C2C3=CC=CC=C3)N4CCOCC4` (top concentration 46.0829 µM), the “area under the dose-response curve” value in the assay on SB.mhdgc-1 [1] amounted to 436; in the assay on SB.msgc-1 [2] it was 461. In addition, the viability in the assay on SB.mhdgc-1 [3] was 37.1%; in the assay with SB.msgc-1 [4], 42.6%.
On to `CCOc1cc(N)c(Cl)cc1C(=O)NCC1CN(Cc2ccc(F)cc2)CCO1` (configuration not stated) [Mosapride citrate] (top concentration 46.0829 µM), for which the results for the “area under the dose-response curve” value in the assay with SB.mhdgc-1 [1] and with SB.msgc-1 [2] were 572 and 514, respectively. In addition, the viability in the assay with SB.mhdgc-1 [3] amounted to 147%; with SB.msgc-1 [4], 89.2%.
On to `Cc1c(C)c2c(c(C)c1O)CCC(C)(COc1ccc(CC3SC(=O)NC3=O)cc1)O2` (configuration not stated) [Troglitazone] (top concentration 46.0829 µM), for which the entries for the “area under the dose-response curve” value in the assay with SB.mhdgc-1 [1] and in the assay on SB.msgc-1 [2] were 544 and 471, respectively. In addition, the viability with SB.mhdgc-1 [3] is 98.6%; in the assay on SB.msgc-1 [4], 69.9%.
For `O=C(CS(=O)Cc1ccco1)NC/C=C\COc1cc(CN2CCCCC2)ccn1` (configuration not stated) [Lafutidine] (top concentration 46.0829 µM), the “area under the dose-response curve” value worked out at 537 in the assay with SB.mhdgc-1 [1] and 304 in the assay on SB.msgc-1 [2]. Moreover, the viability is 68.6% in the assay with SB.mhdgc-1 [3] and 33.7% with SB.msgc-1 [4].
On to `Cc1cnc(Nc2ccc(CN3CCOCC3)cc2)nc1Nc1cccc([S+](=O)([O-])NC(C)(C)C)c1` [TG-46] (top concentration 46.0829 µM), for which the “area under the dose-response curve” value was 392 in the assay with SB.mhdgc-1 [1] and 393 in the assay on SB.msgc-1 [2]. The viability in the assay on SB.mhdgc-1 [3] was found to be 2.85%; in the assay on SB.msgc-1 [4] it was 5.45%.
Take `COc1cccc2c1[C@]13CCN(CC4CC4)[C@H](C2)[C@]1(OC)CCC(=O)C3` [Cyprodime] (top concentration 46.0829 µM): the “area under the dose-response curve” value in the assay with SB.mhdgc-1 [1] was 567; in the assay on SB.msgc-1 [2], 526. For the same compound, the viability with SB.mhdgc-1 [3] was 125%; in the assay on SB.msgc-1 [4], 112%.
Turning to `C[C@]12CCC\3=C\4CCC(=O)\C=C4CC[C@H]3[C@@H]1CC[C@@]2(O)CC#N` [Dienogest] (top concentration 46.0829 µM), the “area under the dose-response curve” value is 526 with SB.mhdgc-1 [1] and 575 with SB.msgc-1 [2]. Moreover, the values for the viability in the assay with SB.mhdgc-1 [3] and in the assay with SB.msgc-1 [4] were 109% and 115%, respectively.
For the compound `C[C@@H](NCc1cc2ccccc2[nH]1)c1cccc2ccccc12` [Calindol] (top concentration 46.0829 µM), the entries for the “area under the dose-response curve” value with SB.mhdgc-1 [1] and in the assay with SB.msgc-1 [2] were 532 and 334, respectively. The viability in the assay with SB.mhdgc-1 [3] was determined as 82.9%; with SB.msgc-1 [4] it was 41.7%.
Taken in the same sequence, the figures for `NC(=O)N1c2ccccc2CC(=O)c2ccccc21` [Oxcarbazepine] (top concentration 46.0829 µM) were 548, 525, 119% and 112%.
`NC(=O)OCC(COC(N)=O)c1ccccc1` [Felbamate] (top concentration 46.0829 µM): the “area under the dose-response curve” value came out at 605 with SB.mhdgc-1 [1] and 512 in the assay on SB.msgc-1 [2]. Further, the viability with SB.mhdgc-1 [3] stood at 129%; in the assay on SB.msgc-1 [4], 104%.
In the case of `C[C@H]1CN(C[C@@H](C)N1)C2=C(F)C3=C(C(=C2F)N)C(=O)\C(=C/N3C4CC4)C(O)=O` [Sparfloxacin] (top concentration 23.0415 µM), the “area under the dose-response curve” value in the assay on SB.mhdgc-1 [1] came out at 556; with SB.msgc-1 [2], 546. The results for the viability in the assay with SB.mhdgc-1 [3] and with SB.msgc-1 [4] were 119% and 97.3%, respectively.
